This test has as its target T1, hSTING (Homo sapiens, UniProt Q86WV6, G230A/H232R/R293Q/R71H).
T1 construct: host or cells: THP1-Dual KO-IFNAR2 cells
Kind of test: STING reporter assay (luciferase) in THP1-Dual KO-IFNAR2 cells stimulated with 2'3'cGAMP. It counts as cell-based. As to conditions: 2'3'cGAMP 15 μM, 24 h, luciferase reporter activity. On the procedure: STING pathway activation by the compounds described herein is measured using THP1-Dual™ cells (KO-IFNAR2).
THP1-Dual™ KO-IFNAR2 Cells (obtained from invivogen) are maintained in RPMI, 10% FCS, 5 ml P/S, 2 mM L-glut, 10 mM Hepes, and 1 mM sodium pyruvate.
Compounds are spotted in empty 384 well tissue culture plates (Greiner 781182) by Echo for a final concentration of 0.0017-100 μM. Cells are plated into the TC plates at 40 μL per well, 2×10E6 cells/mL. For activation with STING ligand, 2′3′cGAMP (MW 718.38, obtained from Invivogen), is prepared in Optimem media.
The following solutions are prepared for each 1×384 plate: • Solution A: 2 mL Optimem with one of the following stimuli: • 60 uL of 10 mM 2′3′cGAMP->150 μM stock • Solution B: 2 mL Optimem with 60 μL Lipofectamine 2000->Incubate 5 min at RT
2 mL of solution A and 2 ml Solution B is mixed and incubated for 20 min at room temperature (RT). 20 uL of transfection solution (A+B) is added on top of the plated cells, with a final 2′3′cGAMP concentration of 15 μM. The plates are then centrifuged immediately at 340 g for 1 minute, after which they are incubated at 37° C., 5% CO2, >98% humidity for 24 h. Luciferase reporter activity is then measured. EC50 values are calculated by using standard methods known in the art.
Luciferase reporter assay: 10 μL of supernatant from the assay is transferred to white 384-plate with flat bottom and squared wells. One pouch of QUANTI-Luc™ Plus us dissolved in 25 mL of water. 100 μL of QLC Stabilizer per 25 mL of QUANTI-Luc™ Plus solution is added. 50 μL of QUANTI-Luc™ Plus/QLC solution per well is then added. Luminescence is measured on a Platereader (e.g., Spectramax I3X (Molecular Devices GF3637001)).
Luciferase reporter activity is then measured. EC50 values are calculated by using standard methods known in the art.

T1 sequence (Q86WV6 whole entry R71H/G230A/H232R/R293Q): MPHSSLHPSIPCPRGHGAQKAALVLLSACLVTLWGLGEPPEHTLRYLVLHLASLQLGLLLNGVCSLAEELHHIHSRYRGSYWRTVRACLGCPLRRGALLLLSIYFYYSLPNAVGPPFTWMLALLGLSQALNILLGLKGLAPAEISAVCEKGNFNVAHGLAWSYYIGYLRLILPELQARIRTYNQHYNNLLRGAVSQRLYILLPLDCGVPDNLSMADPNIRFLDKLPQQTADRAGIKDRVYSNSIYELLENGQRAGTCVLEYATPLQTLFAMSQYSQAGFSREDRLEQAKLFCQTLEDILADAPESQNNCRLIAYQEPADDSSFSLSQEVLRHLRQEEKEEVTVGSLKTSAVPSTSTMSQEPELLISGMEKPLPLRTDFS

On to `O=C(Nc1cnc(N2CCN(CC(F)(F)F)CC2)c(Cl)c1)Nc1c[nH]c2ccc(F)cc12` [Compound 266, 1-(5-chloro-6-(4-(2,2,2-trifluoroethyl)piperazin-1-yl)pyridin-3-yl)-3-(5-fluoro-1H-indol-3-yl)urea], for which the 50% effective concentration (EC50) lay within 0.04 to 0.2 µM.
The compound `O=C(Nc1cnc(C2CCC(F)(F)CC2)c(Cl)c1)Nc1c[nH]c2cc(F)ccc12` [Compound 141, 1-(5-chloro-6-(4,4-difluorocyclohexyl)pyridin-3-yl)-3-(6-fluoro-1H-indol-3-yl)urea] came in with an EC50 of 0.2 to 1 µM.
`Cc1cc(NC(=O)Nc2c[nH]c3cc(F)c(F)cc23)cnc1N1CC2(CC(O)C2)C1` [Compound 161, 1-(5,6-difluoro-1H-indol-3-yl)-3-(6-(6-hydroxy-2-azaspiro[3.3]heptan-2-yl)-5-methylpyridin-3-yl)urea] yielded a concentration giving a half-maximal response (EC50) of 5 to 100 µM.
As to `COC1(C)CN(c2ncc(NC(=O)Nc3c[nH]c4cc(F)c(F)cc34)cc2Cl)C1` [Compound 187, 1-(5-chloro-6-(3-methoxy-3-methylazetidin-1-yl)pyridin-3-yl)-3-(5,6-difluoro-1H-indol-3-yl)urea], the concentration giving a half-maximal response (EC50) fell in the range of 0.2 to 1 µM.
Next, `O=C(Nc1cn(C2CCC(F)(F)CC2)cn1)Nc1c[nH]c2ccc(Cl)cc12` [Compound 212, 3-(5-chloro-1H-indol-3-yl)-1-[1-(4,4-difluorocyclohexyl)imidazol-4-yl]urea]: 1 to 5 µM; `O=C(Nc1cnc(N2CCC(F)(F)CC2)c(F)c1)Nc1c[nH]c2ccc(F)cc12` [Compound 274, 1-(6-(4,4-difluoropiperidin-1-yl)-5-fluoropyridin-3-yl)-3-(5-fluoro-1H-indol-3-yl)urea]: 0.04 to 0.2 µM.
`O=C(Nc1ccc(N2CCN(CC(F)(F)F)CC2)nc1)Nc1c[nH]c2ccc(F)cc12` [Compound 253, 1-(5-fluoro-1H-indol-3-yl)-3-(6-(4-(2,2,2-trifluoroethyl)piperazin-1-yl)pyridin-3-yl)urea] had an EC50 of 0.2 to 1 µM.
`Cc1cc(NC(=O)Nc2c[nH]c3ccccc23)cnc1N1CCC(F)(F)CC1` [Compound 201, 1-(6-(4,4-difluoropiperidin-1-yl)-5-methylpyridin-3-yl)-3-(1H-indol-3-yl)urea] gave an EC50 of 0.2 to 1 µM.
Regarding `O=C(Nc1cnc(N2CCN(CCC(F)(F)F)CC2)c(F)c1)Nc1c[nH]c2ccc(F)cc12` [Compound 267, 1-(5-fluoro-1H-indol-3-yl)-3-(5-fluoro-6-(4-(3,3,3-trifluoropropyl)piperazin-1-yl)pyridin-3-yl)urea], the EC50 is 0.04 to 0.2 µM.
With `N#Cc1cc(NC(=O)Nc2c[nH]c3cc(F)c(F)cc23)cnc1N1CCC(F)(F)CC1` [Compound 163, 1-(5-cyano-6-(4,4-difluoropiperidin-1-yl)pyridin-3-yl)-3-(5,6-difluoro-1H-indol-3-yl)urea], the EC50 was 0.04 to 0.2 µM.
Turning to `N#Cc1ccc2[nH]cc(NC(=O)Nc3cnc(N4CCC(F)(F)CC4)c(Cl)c3)c2c1` [Compound 181, 1-(5-chloro-6-(4,4-difluoropiperidin-1-yl)pyridin-3-yl)-3-(5-cyano-1H-indol-3-yl)urea], the EC50 fell in the range of 0.04 to 0.2 µM.
Next, `C[C@@H]1CN(c2ncc(NC(=O)Nc3c[nH]c4ccc(Cl)cc34)cc2Cl)CCN1C(=O)OC(C)(C)C` [Compound 284, tert-butyl(R)-4-(3-chloro-5-(3-(5-chloro-1H-indol-3-yl)ureido)pyridin-2-yl)-2-methylpiperazine-1-carboxylate]: 0.04 to 0.2 µM; `O=C(Nc1ccn(C2CCC(F)(F)CC2)n1)Nc1c[nH]c2ccc(F)cc12` [Compound 211, 1-(1-(4,4-difluorocyclohexyl)-1H-pyrazol-3-yl)-3-(5-fluoro-1H-indol-3-yl)urea]: 1 to 5 µM; `O=C(Nc1ccc(C2CC(F)(F)C2)c(F)c1)Nc1c[nH]c2ccc(Cl)cc12` [Compound 139, 1-(5-chloro-1H-indol-3-yl)-3-(4-(3,3-difluorocyclobutyl)-3-fluorophenyl)urea]: 0.04 to 0.2 µM.
As for `Cc1cc(NC(=O)Nc2c[nH]c3cc(F)c(F)cc23)cnc1N1CCC(F)(F)CC1` [Compound 200, 1-(5,6-difluoro-1H-indol-3-yl)-3-(6-(4,4-difluoropiperidin-1-yl)-5-methylpyridin-3-yl)urea], the half-maximal effective concentration (EC50) lay in the range of 0.04 to 0.2 µM.
`CCN(C(=O)Nc1c[nH]c2ccc(Cl)cc12)c1cnc(C2CCN(CC(F)(F)F)CC2)c(Cl)c1` [Compound 229, 3-(5-chloro-1H-indol-3-yl)-1-(5-chloro-6-(1-(2,2,2-trifluoroethyl)piperidin-4-yl)pyridin-3-yl)-1-ethylurea]: the EC50 fell in the range of 0.2 to 1 µM.
Turning to `C[C@@H]1CN(c2ncc(NC(=O)Nc3c[nH]c4ccc(Cl)cc34)cc2Cl)C[C@H](C)N1` [Compound 288, 1-(5-chloro-1H-indol-3-yl)-3-(5-chloro-6-(cis-3,5-dimethylpiperazin-1-yl)pyridin-3-yl)urea], the half-maximal effective concentration (EC50) fell in the range of 5 to 100 µM.
As to `O=C(Nc1cnc(N2CCC(F)(F)CC2)c(Cl)c1)Nc1c[nH]c2c(Br)cc(Cl)cc12` [Compound 232, 1-(7-bromo-5-chloro-1H-indol-3-yl)-3-(5-chloro-6-(4,4-difluoropiperidin-1-yl)pyridin-3-yl)urea], the EC50 was in the range of 0.2 to 1 µM.
Regarding `O=C(Nc1ccc(C2CCC2)cc1)Nc1c[nH]c2ccc(Cl)cc12` [Compound 300, 1-(5-chloro-1H-indol-3-yl)-3-(4-cyclobutylphenyl)urea], the half-maximal effective concentration (EC50) was in the range of 0.04 to 0.2 µM.
As for `Cc1cc(NC(=O)Nc2c[nH]c3ccc(Cl)cc23)cnc1C1CCC(F)(F)CC1` [Compound 156, 1-(5-chloro-1H-indol-3-yl)-3-(6-(4,4-difluorocyclohexyl)-5-methylpyridin-3-yl)urea], the figure is 0.04 to 0.2 µM; as for `O=C(Nc1ccc(C2CCC(F)(F)CC2)nc1)Nc1c[nH]c2ccc(Cl)cc12` [Compound 130, 1-(5-chloro-1H-indol-3-yl)-3-(6-(4,4-difluorocyclohexyl)pyridin-3-yl)urea], 0.04 to 0.2 µM.
With `O=C(Nc1cnc(Cl)c(C2CCC(F)(F)CC2)c1)Nc1c[nH]c2ccc(Cl)cc12` [Compound 231, 1-(5-chloro-1H-indol-3-yl)-3-(6-chloro-5-(4,4-difluorocyclohexyl)pyridin-3-yl)urea], the half-maximal effective concentration (EC50) was 0.04 to 0.2 µM.
Regarding `O=C(Nc1cnc(N2CCN(CCC(F)(F)F)CC2)c(Cl)c1)Nc1c[nH]c2ccc(F)cc12` [Compound 245, 1-(5-chloro-6-(4-(3,3,3-trifluoropropyl)piperazin-1-yl)pyridin-3-yl)-3-(5-fluoro-1H-indol-3-yl)urea], the EC50 was in the range of 0.04 to 0.2 µM.
As for `O=C(Nc1ccnc(C2CCC(F)(F)CC2)c1)Nc1c[nH]c2ccc(Cl)cc12` [Compound 255, 1-(5-chloro-1H-indol-3-yl)-3-(2-(4,4-difluorocyclohexyl)pyridin-4-yl)urea], the figure is 0.2 to 1 µM; as for `CC1(C)OCC(c2ncc(NC(=O)Nc3c[nH]c4ccc(Cl)cc34)cc2Br)CO1` [Compound 294, 1-(5-bromo-6-(2,2-dimethyl-1,3-dioxan-5-yl)pyridin-3-yl)-3-(5-chloro-1H-indol-3-yl)urea], 0.04 to 0.2 µM; as for `C[C@H]1CN(c2ncc(NC(=O)Nc3c[nH]c4ccc(Cl)cc34)cc2Cl)C[C@H](C)O1` [Compound 286, 1-(5-chloro-1H-indol-3-yl)-3-(5-chloro-6-((2S,6S)-2,6-dimethylmorpholino)pyridin-3-yl)urea], 0.04 to 0.2 µM.
Compound `O=C(Nc1cnc(N2CCN(CC(F)(F)F)CC2)c(F)c1)Nc1c[nH]c2ccccc12` [Compound 278, 1-(5-fluoro-6-(4-(2,2,2-trifluoroethyl)piperazin-1-yl)pyridin-3-yl)-3-(1H-indol-3-yl)urea] came in with an EC50 of 0.2 to 1 µM.
On to `O=C(Nc1cnc(C2CCC(F)(F)CC2)c(Cl)c1)Nc1c[nH]c2ccc(Cl)cc12` [Compound 157, 1-(5-chloro-1H-indol-3-yl)-3-(5-chloro-6-(4,4-difluorocyclohexyl)pyridin-3-yl)urea], for which the concentration for a half-maximal effect (EC50) lay in the range of 0.04 to 0.2 µM.
Consider `Cc1cc(NC(=O)Nc2c[nH]c3ccccc23)cnc1C1CCN(CC(F)(F)F)CC1` [Compound 276, 1-(1H-indol-3-yl)-3-(5-methyl-6-(1-(2,2,2-trifluoroethyl)piperidin-4-yl)pyridin-3-yl)urea], for which the EC50 is 0.2 to 1 µM.
Turning to `O=C(Nc1cnc(N2CCC(F)(F)CC2)nc1)Nc1c[nH]c2ccc(Cl)cc12` [Compound 180, 1-(5-chloro-1H-indol-3-yl)-3-(2-(4,4-difluoropiperidin-1-yl)pyrimidin-5-yl)urea], the EC50 was 0.04 to 0.2 µM.
Next, `O=C(Nc1ccc(C2CC(F)(F)C2)c(Cl)c1)Nc1c[nH]c2cc(F)c(F)cc12` [Compound 225, 1-(3-chloro-4-(3,3-difluorocyclobutyl)phenyl)-3-(5,6-difluoro-1H-indol-3-yl)urea]: 0.2 to 1 µM.

A word on the EC50: it is the midpoint of the concentration-response curve. A high value points to a need for much substance.

Source of the values: patent US20230127839A1, “COMPOUNDS AND COMPOSITIONS FOR TREATING CONDITIONS ASSOCIATED WITH STING ACTIVITY” (IFM Due, Inc., priority 2019, published 2023).
